ChEMBL document CHEMBL3272223, “Folate analogues altered in the C9-N10 bridge region. 10-Oxafolic acid and 10-oxaaminopterin” (J Med Chem, 1976)
The source made the active and inactive calls. The calls are words filed in the database; no cut-off is given here.

Columns and labels:
[1] = target: Dihydrofolate reductase (Lactobacillus casei) (UniProt P00381); assay: Inhibition of DCM-resistant Lactobacillus casei DHFR at 0.13 mM; settings: Lacticaseibacillus casei
[2] = target: Dihydrofolate reductase (Lactobacillus casei) (UniProt P00381); assay: Activity at DCM-resistant Lactobacillus casei DHFR; settings: Lacticaseibacillus casei
Enterococcus faecium [3] = assay: Growth inhibition of Streptococcus faecium ATCC 8043 at 50 ng/ml by turbidimetric method; assay type: functional; settings: read-out: GI
Dihydrofolate reductase = Dihydrofolate reductase (Lactobacillus casei, UniProt P00381); assay: Inhibition of DCM-resistant Lactobacillus casei DHFR; parameters: species or system Lacticaseibacillus casei; settings: read-out: I50
Dihydrofolate reductase, sequence (P00381 whole entry): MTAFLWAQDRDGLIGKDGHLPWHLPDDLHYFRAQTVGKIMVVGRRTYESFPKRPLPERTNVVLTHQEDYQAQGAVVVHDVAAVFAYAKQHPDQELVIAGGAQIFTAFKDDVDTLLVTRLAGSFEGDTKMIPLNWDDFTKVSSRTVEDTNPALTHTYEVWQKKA

Enterococcus faecium [4] = assay: Growth inhibition of Streptococcus faecium ATCC 8043 at 5 ng/ml by turbidimetric method; assay type: functional; settings: read-out: GI
[5] = target: Dihydrofolate reductase (Lactobacillus casei) (UniProt P00381); assay: Activity at DCM-resistant Lactobacillus casei DHFR relative to 7,8-dihydrofolic acid; settings: Lacticaseibacillus casei

Dihydrofolate reductase (Lactobacillus casei), sequence (P00381 whole entry): as above

Nc1nc(=O)c2c([nH]1)NCC(COc1ccc(C(=O)N[C@@H](CCC(=O)O)C(=O)O)cc1)=N2
inhibition [1]: inactive
Activity [2]: inactive

Nc1nc(=O)c2nc(COc3ccc(C(=O)N[C@@H](CCC(=O)O)C(=O)O)cc3)cnc2[nH]1
inhibition [1]: inactive
inhibition of growth at 0.05 µg/mL (Enterococcus faecium [3]): 50%

Nc1nc(N)c2nc(COc3ccc(C(=O)N[C@@H](CCC(=O)O)C(=O)O)cc3)cnc2n1
IC50 (Dihydrofolate reductase): 4.5 nM
inhibition of growth at 0.005 µg/mL (Enterococcus faecium [4]): 50%

Nc1nc(=O)c2c([nH]1)NCC(CSc1ccc(C(=O)N[C@@H](CCC(=O)O)C(=O)O)cc1)=N2
Activity [5]: 28%
